Laboratory results published in patent US9273040B2 (Merck Sharp & Dohme Corp., priority 2011, dated 2016).

Assays:
[1] = target: T1, human Nav1.7 channels stably expressed in HEK 293 cells (Homo sapiens, UniProt Q15858); test: PatchXpress 7000 automated patch-clamp, sodium current; assay type: cell-based; conditions: 22° C., read-out: potency for the Nav 1.7 sodium ion channel (as measured by PatchXpress)
T1 construct: expressed in transfected cells
Description: (§1) To measure state and use-dependent sodium channel inhibition, test compounds were further characterized in an automated PatchXpress® assay (Molecular Devices). Two voltage-clamp protocols were used. 1) Use-dependent protocol: Cells were held at a membrane potential 20 mV negative to the potential at which ˜50% of the channels are inactivated (V0.5 inact). A train of 30 ms depolarizations to −20 mV was applied to the cells expressing Nav1.7 at a frequency of 10 Hz. […] Data was collected in the absence and presence of drug, and after drug washout. 2) A double-pulse protocol was used to measure inactivated state block. Cells were held at a potential 20 mV negative to V0.5 inact. A 8000 ms pre-pulse 7 mV positive to V0.5 inact was given followed by a hyperpolarizing 2 ms pulse to −120 mV and a 20 ms test pulse to −20 mV. Protocol was applied to cells in the absence, presence of compound and after washout. The temperature of PatchXpress instruments was maintained at 22° C. The following recording solutions were used. Internal solution (mM): 30 CsCl, 5 HEPES, 10 EGTA, 120 CsF, 5 NaF, 2MgCl2, pH=7.3 with CsOH, 324 mosmo. External solution (mM): 120 NMDG, 40 NaCl, 1 KCl, 0.5 MgCl2, 5 HEPES, 2.7 CaCl2, pH=7.5 with NMDG-OH.
(§2) For all electrophysiology experiments, offline analysis was used to correct for current rundown and to determine percent inhibition as a function of drug concentration. IC50 values were determined by fitting to the Hill equation.

[2] = target: T2, human Nav1.5 channels stably expressed in HEK 293 cells (Homo sapiens, UniProt Q14524); test: as above; assay type: cell-based; conditions: selectivity over Nav1.5
T2 construct: expressed in transfected cells
T2 sequence (Q14524 whole entry): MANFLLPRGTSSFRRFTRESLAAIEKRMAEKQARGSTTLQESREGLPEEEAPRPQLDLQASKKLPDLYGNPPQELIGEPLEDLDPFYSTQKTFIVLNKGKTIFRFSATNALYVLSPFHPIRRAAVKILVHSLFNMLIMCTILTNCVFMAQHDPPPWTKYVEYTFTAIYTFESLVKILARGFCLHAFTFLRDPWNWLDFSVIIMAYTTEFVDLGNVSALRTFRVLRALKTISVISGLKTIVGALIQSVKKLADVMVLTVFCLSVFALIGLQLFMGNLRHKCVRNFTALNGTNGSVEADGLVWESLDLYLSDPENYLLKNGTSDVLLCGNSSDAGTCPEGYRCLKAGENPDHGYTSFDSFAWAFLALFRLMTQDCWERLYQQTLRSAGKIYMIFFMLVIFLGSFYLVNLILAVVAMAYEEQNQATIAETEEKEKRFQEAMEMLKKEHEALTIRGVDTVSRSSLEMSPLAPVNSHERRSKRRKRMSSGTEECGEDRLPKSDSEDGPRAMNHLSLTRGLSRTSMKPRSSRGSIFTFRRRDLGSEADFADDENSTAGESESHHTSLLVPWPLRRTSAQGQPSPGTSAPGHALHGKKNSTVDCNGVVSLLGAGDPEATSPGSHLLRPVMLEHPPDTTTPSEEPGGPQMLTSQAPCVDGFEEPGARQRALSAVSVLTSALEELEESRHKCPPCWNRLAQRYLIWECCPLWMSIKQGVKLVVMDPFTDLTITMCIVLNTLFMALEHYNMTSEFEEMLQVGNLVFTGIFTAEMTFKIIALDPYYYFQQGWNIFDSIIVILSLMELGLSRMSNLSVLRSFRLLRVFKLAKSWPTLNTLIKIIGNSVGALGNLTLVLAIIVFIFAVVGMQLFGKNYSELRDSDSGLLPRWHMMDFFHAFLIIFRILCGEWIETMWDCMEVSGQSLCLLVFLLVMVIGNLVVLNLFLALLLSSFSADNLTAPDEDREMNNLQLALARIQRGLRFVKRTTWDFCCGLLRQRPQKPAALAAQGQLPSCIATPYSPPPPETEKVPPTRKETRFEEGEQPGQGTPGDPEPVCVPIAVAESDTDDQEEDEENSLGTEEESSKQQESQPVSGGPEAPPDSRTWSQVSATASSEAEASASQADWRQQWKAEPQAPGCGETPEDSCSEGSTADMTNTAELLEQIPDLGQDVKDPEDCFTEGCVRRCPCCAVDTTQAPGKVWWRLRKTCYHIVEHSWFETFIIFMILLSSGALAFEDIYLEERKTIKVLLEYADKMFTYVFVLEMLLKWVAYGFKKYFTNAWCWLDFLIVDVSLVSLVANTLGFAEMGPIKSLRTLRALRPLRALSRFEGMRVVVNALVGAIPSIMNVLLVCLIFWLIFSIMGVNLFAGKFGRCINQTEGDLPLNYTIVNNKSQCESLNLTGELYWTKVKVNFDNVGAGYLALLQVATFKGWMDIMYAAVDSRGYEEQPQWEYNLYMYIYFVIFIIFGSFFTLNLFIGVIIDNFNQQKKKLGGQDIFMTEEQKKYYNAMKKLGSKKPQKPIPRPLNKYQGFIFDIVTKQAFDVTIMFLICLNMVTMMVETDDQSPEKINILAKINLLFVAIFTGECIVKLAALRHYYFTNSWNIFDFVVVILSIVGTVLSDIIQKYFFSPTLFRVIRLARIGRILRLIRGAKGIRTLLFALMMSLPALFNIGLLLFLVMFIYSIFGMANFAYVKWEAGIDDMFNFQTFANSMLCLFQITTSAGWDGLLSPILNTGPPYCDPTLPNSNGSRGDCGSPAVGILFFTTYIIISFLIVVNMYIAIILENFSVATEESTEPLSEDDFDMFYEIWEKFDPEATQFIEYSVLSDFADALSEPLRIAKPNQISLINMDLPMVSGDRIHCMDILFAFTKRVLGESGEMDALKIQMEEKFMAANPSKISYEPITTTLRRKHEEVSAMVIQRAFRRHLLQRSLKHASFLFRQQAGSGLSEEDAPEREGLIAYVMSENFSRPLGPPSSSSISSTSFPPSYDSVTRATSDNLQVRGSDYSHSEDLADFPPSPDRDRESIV
Description: as §1, §2

T1 sequence (Q15858 whole entry): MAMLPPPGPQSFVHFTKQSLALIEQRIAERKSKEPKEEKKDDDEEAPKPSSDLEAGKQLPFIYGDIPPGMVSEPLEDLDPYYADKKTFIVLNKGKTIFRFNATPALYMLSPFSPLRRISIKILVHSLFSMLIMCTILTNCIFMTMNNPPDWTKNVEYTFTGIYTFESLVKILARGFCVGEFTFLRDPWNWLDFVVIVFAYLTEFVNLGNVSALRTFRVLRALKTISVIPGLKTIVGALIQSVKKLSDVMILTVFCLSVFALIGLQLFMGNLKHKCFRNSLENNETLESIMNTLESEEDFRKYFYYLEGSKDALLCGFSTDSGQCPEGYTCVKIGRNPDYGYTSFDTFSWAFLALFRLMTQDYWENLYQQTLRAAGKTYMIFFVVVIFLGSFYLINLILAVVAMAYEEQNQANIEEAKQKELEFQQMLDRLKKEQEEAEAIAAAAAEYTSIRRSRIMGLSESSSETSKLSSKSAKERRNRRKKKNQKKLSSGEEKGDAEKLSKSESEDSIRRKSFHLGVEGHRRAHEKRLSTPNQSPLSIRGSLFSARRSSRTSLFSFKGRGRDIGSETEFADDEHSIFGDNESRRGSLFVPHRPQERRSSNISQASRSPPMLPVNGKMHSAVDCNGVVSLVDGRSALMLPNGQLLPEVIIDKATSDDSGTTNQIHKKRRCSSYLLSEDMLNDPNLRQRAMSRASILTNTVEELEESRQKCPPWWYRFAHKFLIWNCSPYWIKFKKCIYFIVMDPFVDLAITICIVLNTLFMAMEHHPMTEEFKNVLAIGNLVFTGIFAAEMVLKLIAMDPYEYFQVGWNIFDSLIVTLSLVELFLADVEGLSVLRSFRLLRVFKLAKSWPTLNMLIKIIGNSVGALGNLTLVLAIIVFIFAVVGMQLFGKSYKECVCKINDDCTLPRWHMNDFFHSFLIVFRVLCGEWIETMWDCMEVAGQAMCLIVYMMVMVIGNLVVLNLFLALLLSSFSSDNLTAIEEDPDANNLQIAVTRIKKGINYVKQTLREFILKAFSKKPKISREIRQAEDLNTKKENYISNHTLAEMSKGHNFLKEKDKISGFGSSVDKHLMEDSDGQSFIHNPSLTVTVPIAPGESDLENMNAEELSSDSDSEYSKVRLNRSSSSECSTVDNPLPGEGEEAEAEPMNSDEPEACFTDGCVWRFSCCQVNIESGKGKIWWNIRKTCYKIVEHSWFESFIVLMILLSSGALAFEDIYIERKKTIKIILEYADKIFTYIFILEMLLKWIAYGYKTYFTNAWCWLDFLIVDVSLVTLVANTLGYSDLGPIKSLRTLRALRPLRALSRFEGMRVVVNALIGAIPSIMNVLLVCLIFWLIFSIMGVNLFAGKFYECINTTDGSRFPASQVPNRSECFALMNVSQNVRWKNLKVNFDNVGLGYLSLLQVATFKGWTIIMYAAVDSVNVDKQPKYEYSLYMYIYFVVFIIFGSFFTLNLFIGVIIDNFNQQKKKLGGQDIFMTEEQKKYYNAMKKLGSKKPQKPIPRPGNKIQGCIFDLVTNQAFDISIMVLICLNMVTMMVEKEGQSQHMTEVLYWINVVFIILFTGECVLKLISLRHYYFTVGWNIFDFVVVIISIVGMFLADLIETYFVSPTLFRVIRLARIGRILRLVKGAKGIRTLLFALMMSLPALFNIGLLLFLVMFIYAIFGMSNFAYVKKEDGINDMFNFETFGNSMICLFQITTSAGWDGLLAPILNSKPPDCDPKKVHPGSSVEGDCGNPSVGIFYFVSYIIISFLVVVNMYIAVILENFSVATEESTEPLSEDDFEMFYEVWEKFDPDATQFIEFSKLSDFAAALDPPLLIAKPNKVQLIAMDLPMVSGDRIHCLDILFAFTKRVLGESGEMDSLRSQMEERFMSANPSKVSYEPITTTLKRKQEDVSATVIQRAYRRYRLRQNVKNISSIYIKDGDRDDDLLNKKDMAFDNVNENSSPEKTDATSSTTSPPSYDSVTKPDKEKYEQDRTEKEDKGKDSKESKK

SMILES	IC50 [1]	ratio of Nav 1.5:Nav 1.7 potency, determined by PatchXpress measurement [2]
NC1CCc2cccc(Cn3c(=O)oc4cc(S(=O)(=O)Nc5ncns5)c(F)cc43)c2C1 (racemic) [Compound 20-4, 3-((7-amino-5,6,7,8-tetrahydronaphthalen-1-yl)methyl)-5-fluoro-2-oxo-N-(1,2,4-thiadiazol-5-yl)-2,3-dihydrobenzo[d]oxazole-6-sulfonamide]	179 nM	167
NC1CCc2c(cccc2Cn2c(=O)oc3cc(S(=O)(=O)Nc4ncns4)ccc32)C1 (racemic) [Compound 23-3, (+/−)-3-[(6-amino-5,6,7,8-tetrahydronaphthalen-1-yl)methyl]-2-oxo-N-1,2,4-thiadiazol-5-yl-2,3-dihydro-1,3-benzoxazole-6-sulfonamide]	342 nM	88
O=c1oc2cc(S(=O)(=O)Nc3ncns3)c(F)cc2n1Cc1cccc2c1CC(N1CCC(F)(F)C1)CC2 (racemic) [Compound 23-5, (+/−)-3-{[7-(3,3-difluoropyrrolidin-1-yl)-5,6,7,8-tetrahydronaphthalen-1-yl]methyl}-5-fluoro-2-oxo-N-1,2,4-thiadiazol-5-yl-2,3-dihydro-1,3-benzoxazole-6-sulfonamide]	278 nM	78
O=c1oc2cc(S(=O)(=O)Nc3ncns3)c(F)cc2n1Cc1cccc2c1CC(NCC(F)(F)F)CC2 (racemic) [Compound 23-7, (+/−)-5-fluoro-2-oxo-N-1,2,4-thiadiazol-5-yl-3-({7-[(2,2,2-trifluoroethyl)amino]-5,6,7,8-tetrahydronaphthalen-1-yl}methyl)-2,3-dihydro-1,3-benzoxazole-6-sulfonamide]	206 nM	146
NC1CCc2c(cccc2Cn2c(=O)oc3cc(S(=O)(=O)Nc4ncns4)c(F)cc32)C1 (racemic) [Compound 23-8, (+/−)-3-[(6-amino-5,6,7,8-tetrahydronaphthalen-1-yl)methyl]-5-fluoro-2-oxo-N-1,2,4-thiadiazol-5-yl-2,3-dihydro-1,3-benzoxazole-6-sulfonamide]	186 nM	161
NC1Cc2cccc(Cn3c(=O)oc4cc(S(=O)(=O)Nc5ncns5)ccc43)c2C1 (racemic) [Compound 23-9, (+/−)-3-[(2-amino-2,3-dihydro-1H-inden-4-yl)methyl]-2-oxo-N-1,2,4-thiadiazol-5-yl-2,3-dihydro-1,3-benzoxazole-6-sulfonamide]	180 nM	167
O=c1oc2cc(S(=O)(=O)Nc3ncns3)c(F)cc2n1Cc1cccc2c1CC(N1CCCC1C(F)(F)F)CC2 (racemic) [Compound 23-11, (+/−)-5-fluoro-2-oxo-N-1,2,4-thiadiazol-5-yl-3-({7-[2-(trifluoromethyl)pyrrolidin-1-yl]-5,6,7,8-tetrahydronaphthalen-1-yl}methyl)-2,3-dihydro-1,3-benzoxazole-6-sulfonamide]	115 nM	73
CC(c1cccc2c1CC(N1CC(F)(F)C1)CC2)n1c(=O)oc2cc(S(=O)(=O)Nc3ncns3)c(F)cc21 (racemic) [Compound 23-12, (+/−)-3-{1-[7-(3,3-difluoroazetidin-1-yl)-5,6,7,8-tetrahydronaphthalen-1-yl]ethyl}-5-fluoro-2-oxo-N-1,2,4-thiadiazol-5-yl-2,3-dihydro-1,3-benzoxazole-6-sulfonamide]	109 nM	46
O=c1oc2cc(S(=O)(=O)Nc3ncns3)c(F)cc2n1Cc1cccc2c1CC(NCC(F)F)CC2 (racemic) [Compound 23-13, (+/−)-3-({7-[(2,2-difluoroethyl)amino]-5,6,7,8-tetrahydronaphthalen-1-yl}methyl)-5-fluoro-2-oxo-N-1,2,4-thiadiazol-5-yl-2,3-dihydro-1,3-benzoxazole-6-sulfonamide]	84 nM	121
CN(C)C1CCc2cccc(Cn3c(=O)oc4cc(S(=O)(=O)Nc5ncns5)c(F)cc43)c2C1 (racemic) [Compound 23-15, (+/−)-3-{[7-(dimethylamino)-5,6,7,8-tetrahydronaphthalen-1-yl]methyl}-5-fluoro-2-oxo-N-1,2,4-thiadiazol-5-yl-2,3-dihydro-1,3-benzoxazole-6-sulfonamide]	72 nM	207
O=c1oc2cc(S(=O)(=O)Nc3ncns3)c(F)cc2n1Cc1cccc2c1CC(N1CCOCC1)CC2 (racemic) [Compound 23-16, (+/−)-5-fluoro-3-[(7-morpholin-4-yl-5,6,7,8-tetrahydronaphthalen-1-yl)methyl]-2-oxo-N-1,2,4-thiadiazol-5-yl-2,3-dihydro-1,3-benzoxazole-6-sulfonamide]	70 nM	431
NC1Cc2cccc(Cn3c(=O)oc4cc(S(=O)(=O)Nc5ncns5)c(F)cc43)c2C1 (racemic) [Compound 23-17, (+/−)-3-[(2-amino-2,3-dihydro-1H-inden-4-yl)methyl]-5-fluoro-2-oxo-N-1,2,4-thiadiazol-5-yl-2,3-dihydro-1,3-benzoxazole-6-sulfonamide]	50 nM	321
CNC1CCc2cccc(Cn3c(=O)oc4cc(S(=O)(=O)Nc5ncns5)ccc43)c2C1 (racemic) [Compound 23-18, (+/−)-3-{[7-(methylamino)-5,6,7,8-tetrahydronaphthalen-1-yl]methyl}-2-oxo-N-1,2,4-thiadiazol-5-yl-2,3-dihydro-1,3-benzoxazole-6-sulfonamide]	47 nM	642
O=c1oc2cc(S(=O)(=O)Nc3ncns3)c(F)cc2n1Cc1cccc2c1CC(N1CCC1)CC2 (racemic) [Compound 23-19, (+/−)-3-[(7-azetidin-1-yl-5,6,7,8-tetrahydronaphthalen-1-yl)methyl]-5-fluoro-2-oxo-N-1,2,4-thiadiazol-5-yl-2,3-dihydro-1,3-benzoxazole-6-sulfonamide]	32 nM	499
O=c1oc2cc(S(=O)(=O)Nc3ncns3)c(F)cc2n1Cc1cccc2c1CC(N1CCCC1)CC2 (racemic) [Compound 23-20, (+/−)-5-fluoro-2-oxo-3-[(7-pyrrolidin-1-yl-5,6,7,8-tetrahydronaphthalen-1-yl)methyl]-N-1,2,4-thiadiazol-5-yl-2,3-dihydro-1,3-benzoxazole-6-sulfonamide]	30 nM	802
O=c1oc2cc(S(=O)(=O)Nc3ncns3)c(F)cc2n1Cc1cccc2c1CC(NCCF)CC2 (racemic) [Compound 23-21, (+/−)-5-fluoro-3-({7-[(2-fluoroethyl)amino]-5,6,7,8-tetrahydronaphthalen-1-yl}methyl)-2-oxo-N-1,2.4-thiadiazol-5-yl-2,3-dihydro-1,3-benzoxazole-6-sulfonamide]	28 nM	920
O=c1oc2cc(S(=O)(=O)Nc3ncns3)c(F)cc2n1Cc1cccc2c1CC(NCCO)CC2 (racemic) [Compound 23-22, (+/−)-5-fluoro-3-({7-[(2-hydroxyethyl)amino]-5,6,7,8-tetrahydronaphthalen-1-yl}methyl)-2-oxo-N-1,2,4-thiadiazol-5-yl-2,3-dihydro-1,3-benzoxazole-6-sulfonamide]	26 nM	221
O=c1oc2cc(S(=O)(=O)Nc3ncns3)c(F)cc2n1Cc1cccc2c1CC(NCc1ccccc1)CC2 (racemic) [Compound 23-23, (+/−)-3-{[7-(benzylamino)-5,6,7,8-tetrahydronaphthalen-1-yl]methyl}-5-fluoro-2-oxo-N-1,2,4-thiadiazol-5-yl-2,3-dihydro-1,3-benzoxazole-6-sulfonamide]	24 nM	502
CC(c1cccc2c1CC(N)CC2)n1c(=O)oc2cc(S(=O)(=O)Nc3ncns3)c(F)cc21 (racemic) [Compound 23-24, (R,R and S,R) or (R,S and S,S)-3-[1-(7-amino-5,6,7,8-tetrahydronaphthalen-1-yl)ethyl]-5-fluoro-2-oxo-N-1,2,4-thiadiazol-5-yl-2,3-dihydro-1,3-benzoxazole-6-sutfonamide]	15 nM	1119
CNC1CCc2cccc(Cn3c(=O)oc4cc(S(=O)(=O)Nc5ncns5)c(F)cc43)c2C1 (racemic) [Compound 23-26, (+/−)-5-fluoro-3-{[7-(methylamino)-5,6,7,8-tetrahydronaphthalen-1-yl]methyl}-2-oxo-N-1,2,4-thiadiazol-5-yl-2,3-dihydro-1,3-benzoxazole-6-sulfonamide]	12 nM	2451
